Values quoted from earlier work in patent publication WO2011084962A1, “Analogs of dehydrophenylahistins” (Nereus Pharmaceuticals Inc, priority 2010, dated 2011).

How the values were obtained:
[1] = tested on: neovessels in non-neoplastic tissue; conditions: in vivo
[2] = tested on: cell cycle progression in the M phase
[3] = tested on: retinal neovascularization; conditions: occurs during proliferative retinopathy
[4] = tested on: choroidal neovascularization; conditions: in vivo
[5] = tested on: VEGF induced retinal neovascularization; conditions: in vivo

SMILES	effect on the microtubule assembly (microtubule assembly)	inhibition of cell cycle progression in the M phase [2]	other results
COc1ccc(/C=C\c2cc(OC)c(OC)c(OC)c2)cc1O [Combretastatin A-4]	–	–	disruption of neovessels in non-neoplastic tissue [1]: cause the disruption of neovessels in non-neoplastic tissue
COc1ccc2c(C[C@@H]3NC(=O)[C@@H]4CCCN4C3=O)c(CC=C(C)C)[nH]c2c1 [tryprostatin A]	affect the microtubule assembly	inhibited cell cycle progression in the M phase	–
COc1ccc(/C=C\c2cc(OC)c(OC)c(OC)c2)cc1OP(=O)(O)O [CA-4P]	–	–	inhibition of retinal neovascularization [3]: inhibit the retinal neovascularization that occurs during proliferative retinopathy; inhibition of development and/or partial regression of choroidal neovascularization [4]: inhibit the development and/ or cause partial regression of choroidal neovascularization; suppression of the development of VEGF induced retinal neovascularization [5]: suppress the development of VEGF induced retinal neovascularization
CC(C)=CCc1[nH]c2ccccc2c1C[C@@H]1NC(=O)[C@@H]2CCCN2C1=O [tryprostatin B]	affect the microtubule assembly	inhibited cell cycle progression in the M phase	–
